Assay results taken from paper PMC3655044, “Construction of a chimeric thermoacidophilic beta-endoglucanase” (BMC Biochemistry, 2013).

System: T1, CelA-SSO1949-CelA
T1 construct: 70 aa CelA + 163 aa SSO1949 + 29 aa CelA, 262 aa, ~29 kDa, no purification tag
Assay: FRET fluorescence assay, initial rates
Type: biochemical, Thermotoga maritima; Saccharolobus solfataricus
Details: 80°C; pH 3; 0.1 M sodium phosphate
Text: FRET fluorescence assay, initial rates on CelA-SSO1949-CelA

Q: Which Km does the source give for `CN(C)c1ccc(/N=N/c2ccc(NC(=S)N[C@H]3[C@H](O)[C@@H](O)[C@H](O[C@H]4[C@H](O)[C@@H](O)[C@H](O[C@H]5[C@H](O)[C@@H](O)[C@H](O[C@H]6[C@H](O)[C@@H](O)[C@H](O[C@H]7[C@H](O)[C@@H](O)[C@H](O[C@H]8[C@H](O)[C@@H](O)[C@H](SCC(=O)NCCNc9cccc%10c(S(=O)(=O)O)cccc9%10)O[C@@H]8CO)O[C@@H]7CO)O[C@@H]6CO)O[C@@H]5CO)O[C@@H]4CO)O[C@@H]3CO)cc2)cc1` [fluorescent cellohexaoside, sodium N-{2-N-[(S-(4-deoxy-4-dimethylamino-phenylazophenylthioureido-β-D-glucopyranosyl)-(1→4)-β-D-glucopyranosyl-(1→4)-β-D-glucopyranosyl-(1→4)-β-D-glucopyranosyl-(1→4)-β-D-glucopyranosyl-(1→4)-β-D-glucopyranosyl)-2-thioacetyl]aminoethyl}-1-naphthylamine-5-sulphonate] here?
A: 1.74 ± 0.15 µM
